# Measured values published in patent publication US5089515A, “Lipid-peroxide formation inhibiting composition and novel compounds useful therefor” (priority 1986, dated 1992).
# Entries after “also recorded” stand apart in the source; their conditions may differ.
# Tested on: lipid-peroxide formation in cerebral homogenate
# Assay: Lipid-peroxide formation inhibiting activity (TBA method, cerebral homogenate)
# Format: biochemical, Wistar strain male rat
# Conditions: at 100 μM; rat cerebral homogenate, 30 minutes at 37° C
# Experimental: (1) Lipid-peroxide formation inhibiting activity
# (a) Preparation of cerebral homogenate
# […]. Then, cerebral irrigation was made with ice-cold physiological saline solution buffered with 50 mM phosphoric acid (pH value of 7.4, hereinafter referred to as "PBS"), and the whole brain was extracted. After removing the cerebellum, the cerebrum was weighed in the wet state, added with PBS of 9 times the weight and homogenized in ice-cold water with a teflon homogenizer. The cerebral homogenate was centrifuged at […] and 2200 rpm for 10 minutes, and 0.3 ml of the supernatant was partitioned into a ground stoppered light-resistant test tube to prepare a cerebral homogenate to be used for drug evaluation.
# (b) Evaluation of test drug
# The cerebral homogenate which was prepared by the above procedure (a) was added with 0.6 ml of PBS and 10 μl of ethanol solution which contained the test drug of […] in final concentration and incubated for 30 minutes in a water bath at 37° C. Then, the mixture was added with 200 μl of aqueous 35% solution of perchloric acid and centrifuged at 4° C and 2,600 rpm for 10 minutes to collect the supernatant.
# In addition, 10 μl of ethanol (blank) was added instead of the test drug.
# (c) Determination of lipid peroxide
# The supernatant of 0.1 ml which was obtained in the above procedure (b) was added with 0.2 ml of aqueous 8.1% sodium dodecyl sulfate solution, 1.5 ml of 20% acetic acid buffer solution (pH of 3.5), 1.5 ml of 0.67% 2-thiobarbituric acid solution and 0.7 ml of distilled water and mixed. The mixed solution was heated for 60 minutes in boiling water bath, quenched with ice-cold water and added with 1.0 ml of distilled water and 5.0 ml of a mixture solution of pyridine and butanol (1:15). After 30 seconds of shaking, the mixed solution was centrifuged at 3,000 rpm for 10 minutes, and the supernatant was collected as the sample for lipid peroxide measurement.
# In addition, 0.1 ml of Lipoperoxide-test reagent (Wako Pure Chemicals Co., Ltd.: 1,1,3,3-tetraethoxypropane is contained by […]) was added instead of the cerebral homogenate obtained in the above procedure (b) to prepare the reference solution
# The amount of lipid peroxide was measured at a excitation wavelength of 515 nm and a fluorescence wavelength of 550 nm using a fluoro-spectrophotometer (Model 204, made by Hitachi, Ltd.) and calculated by the following formula: [formula] where, F=fluorescence intensity of the reference solution
# f=fluorescence intensity of the test drug.
# Then, the inhibition rates of the test drugs at each concentration were obtained for the TBA value of the blank under (b) above and IC value were calculated by the method of least square means.
row,Compound,Percent inhibition at 100 μM
1,O=C(O)c1ccc(N2N=C(c3cccnc3)CC2=O)cc1 [compound 7],1.9%
2,CCCC1C(=O)N(C2CCCCC2)N=C1c1cccnc1 (stereo not shown) [compound 23],46.1%
3,"O=C(O)Cc1ccc(N2N=C(c3cccnc3)CC2=O)cc1 [Compound No. 9, 4-[3-(3-pyridyl)-5-oxo-2-pyrazolin-1-il] phenylacetic acid]",2.6%
4,O=C(O)c1ccc(N2N=C(Cc3cccnc3)CC2=O)cc1 [compound 29],17.6%
5,O=C1CC(c2cccnc2)=NN1c1ccccn1 [compound 12],43.2%
6,O=C(O)c1ccc(N2N=C(Cn3ccnc3)CC2=O)cc1 [Compound No. 49],12.9%
7,COc1ccc(N2N=C(Cn3ccnc3)CC2=O)cc1 [compound 43],30.2%
8,O=C1CC(Cn2ccnc2)=NN1C1CCCCC1 [compound 40],39.4%
9,CC(C)C1C(=O)N(c2ccccc2)N=C1Cn1ccnc1 (stereo not shown) [compound 55],27.3%
10,CCC1C(=O)N(C2CCCCC2)N=C1c1cccnc1 (stereo not shown) [compound 21],1.0%
11,CCC1C(=O)N(c2ccccc2)N=C1Cn1ccnc1 (stereo not shown) [compound 52],4.3%

# Same assay, conditions: rat cerebral homogenate, incubated 30 minutes at 37° C
row,IC50,Compound
1,35.1 µM,CCOC(=O)c1ccc(N2N=C(Cn3ccnc3)CC2=O)cc1 [compound 47]
2,37.8 µM,CCC1C(=O)N(c2ccc(Cl)cc2)N=C1Cn1ccnc1 (stereo not shown) [compound 54]
3,6.5 µM,COc1ccc(N2N=C(c3ccco3)CC2=O)cc1 [compound 34]
4,12.2 µM,CCOc1ccc(N2N=C(Cc3cccnc3)CC2=O)cc1 [compound 27]
5,11 µM,O=C1CC(Cn2ccnc2)=NN1c1ccc(Cl)c(Cl)c1 [compound 45]
6,4.3 µM,O=C1CC(c2ccco2)=NN1c1ccccc1 [compound 32]
7,60 µM,Cc1cccc(N2N=C(Cn3ccnc3)CC2=O)c1 [compound 41]
8,24 µM,O=C1CC(Cc2cccnc2)=NN1C1CCCCC1 [compound 30]
9,15.4 µM,O=C1CC(c2ccco2)=NN1c1ccccn1 [compound 37]
10,22.7 µM,O=C1CC(Cn2ccnc2)=NN1c1ccc(Cl)cc1 [compound 44]
11,43 µM,Cc1ccc(N2N=C(Cn3ccnc3)CC2=O)cc1 [compound 39]
12,8.3 µM,O=C1CC(c2ccco2)=NN1C1CCCCC1 [compound 36]
13,23.6 µM,COc1ccc(N2N=C(Cc3cccnc3)CC2=O)cc1 [compound 26]
14,4.1 µM,O=C1CC(Cc2cccnc2)=NN1c1ccc(Cl)cc1 [compound 28]
15,60.1 µM,O=C1CC(Cn2ccnc2)=NN1c1ccccc1 [compound 38]
16,7.4 µM,Cc1ccc(N2N=C(Cc3cccnc3)CC2=O)cc1 [compound 25]
17,4.1 µM,Cc1ccc(N2N=C(c3ccco3)CC2=O)cc1 [compound 33]
18,24.4 µM,CCc1ccc(N2N=C(Cn3ccnc3)CC2=O)cc1 [compound 42]
19,13.6 µM,CCOC(=O)Cc1ccc(N2N=C(c3cccnc3)CC2=O)cc1 [compound 8]
20,3.7 µM,O=C1CC(c2ccco2)=NN1c1ccc(Cl)cc1 [compound 35]
21,51.3 µM,O=C1CC(Cn2ccnc2)=NN1c1ccccn1 [compound 51]
22,6.2 µM,O=C1CC(Cc2cccnc2)=NN1c1ccccn1 [compound 31]
23,60.5 µM,CCOC(=O)Cc1ccc(N2N=C(Cn3ccnc3)CC2=O)cc1 [compound 46]
24,38.2 µM,CCC1C(=O)N(c2ccc(C)cc2)N=C1Cn1ccnc1 (stereo not shown) [compound 53]

row,Compound,IC50
1,COc1ccc(N2N=C(c3cccnc3)CC2=O)cc1 [Compound No. 4],37 µM
2,Cc1ccc(N2N=C(c3cccnc3)CC2=O)cc1 [compound 2],10.3 µM
3,CCc1ccc(N2N=C(c3cccnc3)CC2=O)cc1 [compound 3],4 µM
4,"O=C1CC(c2cccnc2)=NN1c1ccccc1 [Compound No. 1, 1-phenyl-3-(3-pyridyl)-2-pyrazolin-5-one]",23.6 µM
5,CC1C(=O)N(c2ccccc2)N=C1c1cccnc1 (stereo not shown) [compound 14],38.9 µM
6,CCCC1C(=O)N(c2ccccc2)N=C1c1cccnc1 (stereo not shown) [compound 22],28.2 µM
7,CC1C(=O)N(c2ccc(Cl)cc2)N=C1c1cccnc1 (stereo not shown) [compound 17],7.1 µM
8,O=C1CC(c2cccnc2)=NN1c1ccc(Cl)cc1 [compound 6],4.3 µM
9,COc1ccc(N2N=C(c3cccnc3)C(C)C2=O)cc1 (stereo not shown) [compound 16],46.3 µM
10,"O=C1CC(c2cccnc2)=NN1c1ccc(O)cc1 [Compound No. 10, 1-(4-hydroxyphenyl)-3-(3-pyridyl)-2-pyrazolin-5-one]",102 µM
11,O=C1CC(Cc2cccnc2)=NN1c1ccccc1 [compound 24],16.4 µM
12,O=C1CC(c2cccnc2)=NN1c1nc2ccccc2s1 [compound 13],84.1 µM
13,CCC1C(=O)N(c2ccccc2)N=C1c1cccnc1 (stereo not shown) [compound 20],29.4 µM
14,CC1C(=O)N(c2ccccn2)N=C1c1cccnc1 (stereo not shown) [compound 19],12.3 µM
15,CCOc1ccc(N2N=C(c3cccnc3)CC2=O)cc1 [Compound No. 5],12.9 µM
16,CC1C(=O)N(C2CCCCC2)N=C1c1cccnc1 (stereo not shown) [compound 18],29.3 µM
17,Cc1ccc(N2N=C(c3cccnc3)C(C)C2=O)cc1 (stereo not shown) [compound 15],12.5 µM
18,O=C1CC(c2cccnc2)=NN1C1CCCCC1 [compound 11],16.9 µM

# Tested on: cerebral ischemia model
# Assay: Cerebral protective activity in cerebral ischemia model
# Format: in vivo, Wistar-strain male rat
# Conditions: 10 mg/kg into the duodenum, 30 minutes before 10 minutes ischemia; after release of ischemia
# Experimental: (2) Cerebral protective activity in cerebral ischemia model
# A Wistar-strain male rat weighing about 400 g was intramuscularly dosed with 0.6 mg of d-tubocurarine to immobilize. After inserting a trachea cannula, the head was fixed to the stereofaxic apparatus under artificial respiration. After incising the head skin and drilling the cranial bone, an electrode for recording electroencephalogram was placed on the surface of the left frontal cortex. After fixing the electrode to the cranial bone using dental cement, the rat was supported in the rear position. Then, a cannula for measuring the blood pressure was intubated to the left femoral artery and another cannula for additionally dosing d-tubocurarine was also intubated to the left femoral vein. The heart rate was measured by a cardiotachometer triggered by pulse pressure.
# After reaching the stable state of several parameters including blood pressure, heart rate and electroencephalogram, the effective ingredient of the present invention which was previously prepared so as to form suspension of 1 ml/kg with 1% tragacanth gum solution was directly dosed into the duodenum in a dose of 10 mg/kg at 30 minutes before cerebral ischemia loading. The control group were dosed by the same volume of 1% tragacanth gum solution only.
# The blood pressure, heart rate and electroencephalogram were monitored 10 to 20 minutes after drug dosing with the multipurpose polygraph (Model RM-85, made by Nihon Kohden Co., Ltd.), and operation was made according to the following procedure:
# Firstly, the ribs were freed from the left costal cartilage and the chest was opened. Then, 30 minutes after drug dosing, the left common carotid artery, left vertebral artery and brachiocephalic artery were simultaneously plugged at the origin of the arteries with artery clips to stop the blood flow into the brain for 10 minutes.
# The resumption of blood flow into the brain was conducted by simultaneously releasing the artery clips which were attached to said positions.
# The cerebral protective activity of the drug against the disturbance after the release of cerebral ischemic load was investigated by the restoration of electroencephalogram.
# During the experiment, the rectal temperature was maintained at 37-38° C. with a heating pad and continuously recorded on the recorder along with electroencephalogram, femoral blood pressure and heart rate.
row,Compound,restoration of electroencephalogram
1,"O=C1CC(c2cccnc2)=NN1c1ccccc1 [Compound No. 1, 1-phenyl-3-(3-pyridyl)-2-pyrazolin-5-one]",the electroencephalogram appeared with restoration during the releasing
2,O=C1CC(Cc2cccnc2)=NN1c1ccccc1 [compound 24],the electroencephalogram appeared with restoration during the releasing

# Same assay, conditions: 10 mg/kg into the duodenum; after release of ischemia
row,Compound,function of the pulsation system
1,"O=C1CC(c2cccnc2)=NN1c1ccccc1 [Compound No. 1, 1-phenyl-3-(3-pyridyl)-2-pyrazolin-5-one]",the function of the pulsation system was activated and normalized
2,O=C1CC(Cc2cccnc2)=NN1c1ccccc1 [compound 24],the function of the pulsation system was activated and normalized

# Same assay, conditions: 10 mg/kg into the duodenum; control died 75 minutes in average from blood reflow
row,Compound,survival period of time
1,"O=C1CC(c2cccnc2)=NN1c1ccccc1 [Compound No. 1, 1-phenyl-3-(3-pyridyl)-2-pyrazolin-5-one]",the survival period of time of the animals of the group was clearly extended
2,O=C1CC(Cc2cccnc2)=NN1c1ccccc1 [compound 24],the survival period of time of the animals of the group was clearly extended

# Tested on: not given
# Assay: not given
# Conditions: cited from earlier work
row,Compound,solubility in water
1,COC1=C(OC)C(=O)C(CCCCCCCCCCO)=C(C)C1=O [Idebenon],difficult to dissolve in water

# Tested on: central nervous system
# Assay: not given
# Conditions: IYAKUHIN KENKYU, 16, 1 (1985); cited from earlier work
row,Compound,depressing the central nervous system
1,CCN(CC)Cc1nccn1-c1ccc([N+](=O)[O-])cc1C(=O)c1ccccc1Cl [nizofenone],defective in depressing the central nervous system

# Tested on: lipid peroxidation due to active oxygen species
# Assay: not given
# Conditions: prior art; cited from earlier work
row,Compound,inhibition of lipid peroxidation
1,CCN(CC)Cc1nccn1-c1ccc([N+](=O)[O-])cc1C(=O)c1ccccc1Cl [nizofenone],known to inhibit lipid peroxidation due to active oxygen species
2,vitamin E,known to inhibit lipid peroxidation due to active oxygen species; also recorded: not sufficient to inhibiting lipid peroxidation
3,COC1=C(OC)C(=O)C(CCCCCCCCCCO)=C(C)C1=O [Idebenon],known to inhibit lipid peroxidation due to active oxygen species
